Data: US11077205B2, “Synthetic compound for improving efficiency of transfection” (Klinikum der Universität München, priority 2016, dated 2021)
The star is where a group is joined. ξ: configuration not given here. Lipoyl(6ξ) = O=C(CCCCC1CCSS1)*

Columns and labels:
BEAS-2B cells = assay: In vitro transfection, Metridia luciferase assay in BEAS-2B cells; assay type: cell-based, human
Protocol: (§1) Preparation of IVT-mRNA/pDNA containing binary and ternary complexes: Stock solutions of P704 (5 mg/ml) and synthetic compound (1 mg/ml) were prepared in nuclease-free water (NF water) and stored at 4° C. P704 based binary complexes (P704/IVT-mRNA or P704/pDNA) were prepared by mixing equal volumes of diluted P704 stock solution with IVT-mRNA or pDNA solution at the desired concentration in 2× Tyrode's solution. Ternary complexes were generated via two-steps incubation. Briefly, P704 solutions at certain concentration (defined as weight/weight (w/w) ratio between P704 and nucleic acids) in NF-water were mixed with equal volume of synthetic compound solution at specific concentration (defined as N/P ratio, namely the […] between nitrogen residues in synthetic compound and nucleic acids phosphate groups). After 20 min incubation at room temperature (RT), same volumes of nucleic acid (IVT-mRNA or pDNA) solution in NF-water were added to the above P704/synthetic compound solution and mixed gently by pipetting up and down several times. Subsequently, complexes were incubated for another 20 min at RT prior to further use. IVT-mRNA or pDNA solutions in NF-water were complexed with brPEI (25 kDa) at an optimum N/P ratio, the resulting complexes were served as a control polyplex. As for control lipoplex, Lipofectamine® 2000 complexes were prepared according to the manufacturer's instructions using optimum concentration. In order to prepare DOTAP/DOPE liposomes, a lipid film was formed by removing the chloroform solvent in DOTAP/DOPE mixture solution under nitrogen atmosphere. The lipid film is hydrated with NF-water to make the final concentration 10 mM DOTAP/DOPE. The DOTAP/DOPE liposome formulation was formed by mixing 250 μl of pDNA encoding for firefly luciferase and cystic fibrosis transmembrane conductance regulator (fLUC-CFTR pDNA) (150 μg) containing solution and 250 μl diluted DOTAP/DOPE solution (190 μl of 10 mM DOTAP/DOPE liposome and 60 μl NF-water). The mix solution was incubated at RT for 20 min prior to further use.
(§2) In vitro transfection: For the luciferase assay, cells were seeded at a density of 1.8×10^4/well (BEAS-2B) or 3.5×10^4/well (16HBE) in 96-well plates 24 h before transfection to reach 60-80% confluence. Following removal of growth medium, cells were rinsed with DPBS (Gibco, Germany). 170 μl of fresh serum-free OptiMEM (Gibco, Germany) were added per well, and subsequently 30 μl of IVT-mRNA or pDNA containing complexes prepared, as described above, corresponding to 400 ng IVT-mRNA or pDNA per well, were added in replicates of five. After 4 h of incubation at 37° C. in a humidified 5% CO2-containing atmosphere, the transfection medium was replaced with culture medium supplemented with 10% FBS and 1% (v/v) penicillin/streptomycin. Luciferase activity in 50 μl supernatants from transfected cells was assayed with Metridia luciferase substrate (coelenterazine, Invivogen, France) after 24 h using a FLUOstar microplate reader (BMG Labtech, Germany) and its activity is expressed in relative light units (RLU). In all cases each sample was measured on at least two other occasions to ensure the reproducibility of the data.
The same transfection procedure as described above was applied. Luciferase activity was expressed in RLU. The data are given as the mean±standard deviation (SD) of the mean (n>5) in FIGS. 12a to 12k.
(§3) The concentration of P704 in ternary complexes for treatment of BEAS-2B cells was 50 (w/w) and the concentration of P704 in ternary complexes for treatment of 16HBE cells was 63 (w/w). The N/P ratios of the compounds in ternary complexes were as follows:
BEAS-2B cells: Compound 0 (DL) at 30, compound 1 at 20, compounds 3 and 11 at 15, compounds 4 and 6 at 10, compounds 2 and 9 at 5, compounds 5, 7, 8 and 10 at 2.5.
The same transfection procedure as described above was applied. Luciferase activity was expressed in RLU. […]

16HBE cells = assay: In vitro transfection, Metridia luciferase assay in 16HBE cells; assay type: cell-based, human
Protocol: as §1
as §2, with “data. […]” for “data.”
as §3
16HBE cells: Compound 0 (DL) at 20, compounds 1 and 11 at 15, compounds 2 and 3 at 10, compounds 4, 6, 8, and 9 at 5, compounds 5, 7, and 10 at 2.5.
The same transfection procedure as described above was applied.
The concentration of P704 in ternary complexes was 63 (w/w). The N/P ratio of the compounds in certain ternary complexes was as follows:
16HBE cells: Compound 1, 8, and 11 at 20; compound 0 (DL) and 3 at 10; compound 2 at 7.5; compounds 4, 6, 9, and 10 at 5, compounds 5 and 7 at 2.5. […]

Substance | IVT-mRNA transfection efficiency of P704 ternary complex (in words) (BEAS-2B cells; MetLuc mRNA, P704 63 (w/w), optimum N/P, FIG. 17a) | pDNA transfection efficiency of P704 ternary complex (in words) (BEAS-2B cells; MetLuc pDNA, P704 50 (w/w), optimum N/P, FIG. 14a) | IVT-mRNA transfection efficiency of P704 ternary complex (in words) (16HBE cells; MetLuc mRNA, P704 63 (w/w), optimum N/P, FIG. 17b) | pDNA transfection efficiency of P704 ternary complex (in words) (16HBE cells; MetLuc pDNA, P704 63 (w/w), optimum N/P, FIG. 14b) | pDNA expression relative to compound 3 containing ternary complex (BEAS-2B cells; MetLuc pDNA, FIG. 14a) [times] | pDNA expression compared with compound 3 containing ternary complex (16HBE cells; other days than day 2)
KETWWETWWTEWWTEW-KKKKRRRRRKKKK-GACSERSMNFCG (KETWWETWWTEWWTEWKKKKRRRRRKKKKGACSERSMNFCG) [compound 9] | more superior to other counterparts | highest transfection efficiency | more superior to other counterparts | overwhelming signals |  | 
NH2-VKRKKKPKKRRRRKKWK(DL-lipoic acid)-CONH2 (H-VKRKKKPKKRRRRKKWK(Lipoyl(6ξ))-NH2; SMILES CC(C)[C@H](N)C(=O)N[C@@H](CCCCN)C(=O)N[C@@H](CCCNC(=N)N)C(=O)N[C@@H](CCCCN)C(=O)N[C@@H](CCCCN)C(=O)N[C@@H](CCCCN)C(=O)N1CCC[C@H]1C(=O)N[C@@H](CCCCN)C(=O)N[C@@H](CCCCN)C(=O)N[C@@H](CCCNC(=N)N)C(=O)N[C@@H](CCCNC(=N)N)C(=O)N[C@@H](CCCNC(=N)N)C(=O)N[C@@H](CCCNC(=N)N)C(=O)N[C@@H](CCCCN)C(=O)N[C@@H](CCCCN)C(=O)N[C@@H](Cc1c[nH]c2ccccc12)C(=O)N[C@@H](CCCCNC(=O)CCCCC1CCSS1)C(N)=O) [compound 0 (DL)] |  |  |  |  | ~5 | significantly higher
